Measurements reported in US20110319346A1, “ELECTROSTATIC PROTEIN/GLUCOSINOLATE COMPLEXES” (NESTEC S.A., priority 2009, published 2011).

What was measured:
β-lactoglobulin (BLG) = target: T1, β-lactoglobulin (BLG) (Bos taurus, UniProt P02754); test: Binding curve of sinigrin to β-lactoglobulin (ultrafiltration, SEC of free SIN); design: species or system bovine; details: for number of maximum binding sites (nmax): SIN to BLG, acidic conditions (pH 4.0), 25° C.
T1 construct: The composition in the major whey protein fraction was 89.22% BLG; purchased Davisco Biopure, lot JE 001-3-922
T1 sequence (P02754 17-178): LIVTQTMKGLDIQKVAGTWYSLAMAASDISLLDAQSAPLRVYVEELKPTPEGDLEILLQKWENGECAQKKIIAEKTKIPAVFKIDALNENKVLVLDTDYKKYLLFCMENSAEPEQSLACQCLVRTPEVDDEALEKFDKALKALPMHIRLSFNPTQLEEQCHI
Method: β-Lactoglobulin (BLG) powder was dispersed in Millipore® water by stirring at room temperature for 1 hour. The protein powder was purchased from Davisco (Biopure, lot JE 001-3-922). The protein content was 93.5 g/100 g of powder, as determined by Kjeldahl analysis (N×6.38). The composition in the major whey protein fraction was 89.22% BLG, 6.91% […], 3.87% bovine serum albumin, as determined by reversed phase HPLC(RP-HPLC); 0.2% fat, 1.5% ash and 4.9% moisture, as specified by the supplier. The mineral composition was as follows: 0.87% Na^+, <0.004% K^+, <0.04% Cl^−, 0.019% Ca^2+, 0.053% P, 0.002% Mg^2+, as determined by atomic absorption spectroscopy.
Concentration of the BLG in the protein solution was 1 mM (1.84% w/w). It was stored overnight at 4° C. to allow hydration. The next day, the protein dispersion was filtered using a Stericup filtration system (Millipore®) with 0.22 μm GP Express Plus membrane. The filtered dispersion (pH 7.2) was either used directly for sample preparation, or it was previously acidified to pH 4.0 using 1M HCl. The amount of 1M HCl added in the latter case was about 1% of the total volume.
The glucosinolate solution was prepared on the day of the experiment by dissolving sinigrin (SIN) in Millipore® water to obtain a concentration 20 or 40 mM (0.83. or 1.66% w/w). Sinigrin hydrate (allyl glucosinolate) 99%, was purchased from Sigma (lot 1291054). For the experiments under acidic conditions, SIN solution was acidified to pH 4.0. The amount of 1M HCl added in the latter case was about 1% of the total volume. […]
After incubation, 2×1.5 mL of mixtures were centrifuged using Centrisart® I centrifugal ultrafiltration units with cellulose triacetate ultrafilters having molecular weight cut-off of 10 kDa (Sartorious, Germany) in a Sorvall RC 3C PLUS centrifuge with a swing bucket rotor (Thermo, Switzerland), for 30 min at 2900×g. Ultrafiltrates were collected, diluted 10 times in Millipore® water, and then analyzed by size exclusion HPLC (SEC) to determine the amount of free (unbound) SIN in each sample. […]

[1] = Emulsifying properties: 10% oil-in-water emulsions, stability to creaming and flocculation; type: physicochemical; details: 10% oil-in-water emulsion, pH 4.0, without or with heat treatment
Method: Emulsifying properties of samples at pH 4.0 (prepared as described in example 1) were evaluated by preparing emulsions containing 10% (w/w) of “high oleic” sunflower oil (Oleifico SABO, Manno, Switzerland). Samples with SIN to BLG molar ratio 10 with or without heat treatment were diluted to 0.25 mM BLG and mixed with oil in a Pyrex® tube (D 25 mm, V 35 mL) to a final weight of 20 g. They were pre-homogenized using an Ultra Turrax® T25 equipped with a S25N-10G dispersing head (IKA-Werke, Staufen, Germany) rotating at 16,000 rpm for 1 minute. Homogenization of emulsions was completed using an ultrasonic processor (Hielscher UP400S, power 400 W, frequency 24 kHz) and a sonotrode (diameter 7 mm, approx. length 100 mm, titanium) at room temperature for 75 seconds and 75% amplitude of the ultrasound maximal power. This emulsification time was enough to disperse the oil in small droplets and to avoid excessive heating of the sample. […] Stability of emulsions to creaming and flocculation was followed over 26 days of storage at 4° C.

C=CC/C(=N\OS(=O)(=O)[O-])S[C@@H]1O[C@H](CO)[C@@H](O)[C@H](O)[C@H]1O.O.[K+] [SIN, Sinigrin hydrate (allyl glucosinolate)]
number of maximum binding sites (nmax) (β-lactoglobulin (BLG); with heat treatment (85° C., 15 min)): 8.71
number of maximum binding sites (nmax) (β-lactoglobulin (BLG); without heat treatment): 15.4
amount of bound SIN to BLG (β-lactoglobulin (BLG); pH 4.0 compared to 7.2): much higher at pH 4.0 compared to 7.2
ability to produce a stable oil/water emulsion [1]: not able to produce a stable oil/water emulsion
